The text below walks through data of patent US20190077766A1, “Compositions For APP-Selective BACE Inhibition And Uses Therefor” (NantNeuro, LLC, priority 2015, published 2019).

The target in one data set is T1, APP (Homo sapiens, UniProt P05067).
T1 construct: made in house
Nature of the data set: APP binding (APP Kd), surface plasmon resonance. The source says: ABBI Assay: APP Binding BACE Inhibitor (ABBI) activity of any of the compounds described herein can readily be verified using, for example, assays described herein. Basically, in certain embodiments a pair the assays are utilized to identify ABBI compounds that inhibit BACE cleavage of the MBP-C125 APP substrate, resulting in the inhibition of the production of C99 and the β-site peptide substrate (P5-P5′) and also interacts with APP, for example, as measured by surface plasmon resonance (SPR) analysis. In one illustrative embodiment, an MBP-C125 APP695 wt fusion protein can be used as one of the substrates and the second substrate can be the commercially available P5-P5′ fluorescence substrate. […]

The target in the next data set is T2, BACE1 (Homo sapiens, UniProt P56817).
T2 construct: purchased R&D 931-AS-050
T2 sequence (P56817 46-457 limits assumed): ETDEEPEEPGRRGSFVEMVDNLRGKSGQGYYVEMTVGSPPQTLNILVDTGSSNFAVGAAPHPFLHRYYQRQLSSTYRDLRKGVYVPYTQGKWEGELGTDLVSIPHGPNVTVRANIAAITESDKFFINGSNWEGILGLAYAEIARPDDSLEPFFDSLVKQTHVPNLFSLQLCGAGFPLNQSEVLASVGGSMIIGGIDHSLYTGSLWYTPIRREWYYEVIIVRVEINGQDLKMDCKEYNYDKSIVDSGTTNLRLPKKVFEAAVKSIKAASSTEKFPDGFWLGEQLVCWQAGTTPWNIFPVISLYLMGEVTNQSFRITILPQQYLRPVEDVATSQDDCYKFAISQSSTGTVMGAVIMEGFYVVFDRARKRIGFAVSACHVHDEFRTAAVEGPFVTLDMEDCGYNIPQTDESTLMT
Kind of data set: in vitro BACE inhibition assay (Primary BACE1 IC50). It is filed as biochemical. The source says:
ABBI Assay: APP Binding BACE Inhibitor (ABBI) activity of any of the compounds described herein can readily be verified using, for example, assays described herein. Basically, in certain embodiments a pair the assays are utilized to identify ABBI compounds that inhibit BACE cleavage of the MBP-C125 APP substrate, resulting in the inhibition of the production of C99 and the β-site peptide substrate (P5-P5′) and also interacts with APP, for example, as measured by surface plasmon resonance (SPR) analysis. In one illustrative embodiment, an MBP-C125 APP695 wt fusion protein can be used as one of the substrates and the second substrate can be the commercially available P5-P5′ fluorescence substrate.

A short description of data set [1]: PAMPA parallel artificial membrane permeability assay. It is filed as in vitro ADME. Conditions: Table 4.

Like-named read-outs stand apart in the source and are kept apart here.

T1 sequence (P05067 230-624 isoform P05067-4): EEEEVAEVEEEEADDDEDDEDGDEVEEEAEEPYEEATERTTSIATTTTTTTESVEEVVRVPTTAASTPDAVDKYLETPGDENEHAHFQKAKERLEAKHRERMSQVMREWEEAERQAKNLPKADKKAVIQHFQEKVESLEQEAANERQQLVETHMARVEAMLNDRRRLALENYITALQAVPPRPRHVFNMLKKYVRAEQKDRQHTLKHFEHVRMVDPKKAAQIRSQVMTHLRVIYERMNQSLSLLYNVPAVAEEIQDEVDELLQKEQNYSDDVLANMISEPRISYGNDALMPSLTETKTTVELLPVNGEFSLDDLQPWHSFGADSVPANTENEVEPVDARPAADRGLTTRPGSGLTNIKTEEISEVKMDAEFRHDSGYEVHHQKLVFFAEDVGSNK

For orientation: IC50 means the midpoint of a concentration-inhibition curve. As for `Cc1cc(C2(c3cc(F)cc(F)c3)N=C(N)N(C)C2=O)ccc1OC(F)F` (stereo not shown) [FAH-03], the Kd on APP was roughly 300 nM. The IC50 on BACE1 (Tables 1 and 2, read-out: Primary BACE1 IC50) came to 530 nM.

`CNCCc1cccc(C2(c3ccc(OC(F)F)c(C)c3)N=C(N)N(C)C2=O)c1` (stereo not shown) [FAH-63] displayed a PAMPA in data set [1] of 0.36. The IC50 at BACE1 (Table 4, several values in a cell = several determinations, read-out: BACE1 IC50) was determined as 1180 nM.
